In article PMC9722750, “Antibacterial and β-amyloid precursor protein-cleaving enzyme 1 inhibitory polyketides from the fungus Aspergillus chevalieri” (Frontiers in Microbiology, 2022):
In brackets after ≈: the same amount, converted by molar mass. Counter-ions that a name gives are not always drawn.

Experiments:
[1] = system: Pseudomonas aeruginosa ATCC27853; assay: Antibacterial assay; type: cell-based; conditions: for inhibition at 200 µM: Pseudomonas aeruginosa, ATCC27853, read-out: Inhibition rate against Pseudomonas aeruginosa
Procedure: (§1) In this study, the tested bacteria strains, Escherichia coli ATCC25922, Staphylococcus aureus subsp. aureus ATCC29213, Salmonella enterica subsp. enterica ATCC14028, Pseudomonas aeruginosa ATCC27853, methicillin-resistant S. aureus (MRSA) were purchased from China General Microbiological Culture Collection Center (CGMCC). All the strains were cultured in Mueller-Hinton broth (Oxoid, Thermo Fisher Scientific) at 37°C with shaking at 200 rpm overnight. Each culture was diluted 40-fold in fresh MHB broth and incubated at 37°C with shaking (200 rpm) for another 2–3 h. The mid-log phase cultures were diluted to a concentration of 5 × 10^5 CFU/mL by McFarland Standards, which was used as seeding solution for following antibacterial assays. Each well of the compound-containing 96-well plates was seeded with 100 μL of aforementioned seeding solution, giving a final compound concentration 200 μM. Plates were covered and incubated at 37°C for 24 h. The inhibitory rates were calculated by [(1-OD625sample)/OD625negative control] × 100%. Penicillin G sodium and ceftazidime were used as positive controls (inhibitory rates >99%) ([Zhao Z.-Z. et al., 2018]). Compounds were first tested for their potential against five bacterial strains at a single concentration of 200 μM. If the inhibitory rate above 50%, different concentrations of the compounds were further evaluated for the antibacterial ability.

[2] = system: methicillin-resistant S. aureus (MRSA); assay: Antibacterial assay; type: cell-based, Staphylococcus aureus; conditions: for inhibition at 200 µM: read-out: Inhibition rate against Methicillin-resistant Staphylococcus aureus
Procedure: as §1

[3] = target: β-amyloid precursor protein-cleaving enzyme 1 (β-secretase, BACE1) (Homo sapiens, UniProt P56817); assay: BACE1 FRET assay; type: biochemical; conditions: 3 h at room temperature, read-out: IC50 BACE1 inhibition
Sequence of β-amyloid precursor protein-cleaving enzyme 1 (β-secretase, BACE1) (P56817 22-501 limits assumed): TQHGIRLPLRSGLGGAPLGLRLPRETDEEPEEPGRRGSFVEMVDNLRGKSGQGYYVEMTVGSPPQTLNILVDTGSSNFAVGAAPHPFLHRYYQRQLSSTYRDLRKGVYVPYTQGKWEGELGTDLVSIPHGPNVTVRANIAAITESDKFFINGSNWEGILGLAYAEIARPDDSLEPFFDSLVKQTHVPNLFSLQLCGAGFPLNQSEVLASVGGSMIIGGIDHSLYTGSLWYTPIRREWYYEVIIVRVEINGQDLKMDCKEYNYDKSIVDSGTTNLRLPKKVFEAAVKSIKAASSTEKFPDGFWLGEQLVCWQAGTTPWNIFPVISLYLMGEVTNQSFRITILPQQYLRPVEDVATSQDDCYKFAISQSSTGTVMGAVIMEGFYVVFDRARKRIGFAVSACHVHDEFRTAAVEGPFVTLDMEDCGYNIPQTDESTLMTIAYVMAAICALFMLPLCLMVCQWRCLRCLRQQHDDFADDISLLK
Procedure: β-amyloid precursor protein-cleaving enzyme 1 (β-secretase, BACE1) assays were performed according to the literature ([Qi et al., 2018]; [Yatsu et al., 2019]). First, 10 μL of the test sample, 10 μL of the 722 nM BACE1 substrate (Rh-[…]-Quencher in 50 mM ammonium bicarbonate), and 10 μL of the BACE1 enzyme (1 U/mL) were mixed in black 384-well plates and incubated for 3 h at room temperature. The fluorescence intensity was measured at 540 nm excitation and 590 nm emission using a microplate reader (Tecan Spark 10M, TECAN, Männedorf, Switzerland) at the time points of 1 h and 3 h. The BACE1 inhibition rate was calculated by the following equation: BACE1 inhibition rate (%) = {1–[(S–S0)–(B–B0)/(C–C0)–(B–B0)]} × 100, where C is the fluorescence of a DMSO control (enzyme, substrate, and assay buffer with DMSO) after 3 h of incubation, C0 is the fluorescence of the DMSO control at 1 h after incubation, B is the fluorescence of a non-enzyme control (substrate and assay buffer with DMSO) after 3 h of incubation, B0 is the fluorescence of the non-enzyme control at 1 h after incubation, S is the fluorescence of the tested samples (enzyme, sample solution, and substrate) after 3 h of incubation, and S0 is the fluorescence of the tested samples at 1 h after incubation. The IC50 values were calculated by GraphPad Prism software (v5.02, CA, USA).

in vitro = type: cell-based; conditions: human
Procedure: The human lung cancer cell line A549 used in this study was purchased from Conservation Genetics CAS Kunming Cell Bank. The cells were cultured in high-glucose DMEM with 10% fetal bovine serum, 100 mg/mL streptomycin, 100 U/mL penicillin, and kept in an incubator at 37°C under an atmosphere of 5% CO2. The cell viability was assessed by 3-(4,5-dimethylthiazol-2-yl)-2,5-diphenyltetrazolium bromide (MTT) method. […] In brief, 100 μL of adherent cells was seeded to each well of a 96-well cell culture plate. The plate was kept for 12 h for adherence. […] However, suspended cells were seeded with the same density of 1 × 10^5 cells/mL every 100 μL of culture medium before adding the test compounds. Then the plate was incubated for another 48 h. After 48 h of incubation, 100 μg of MTT was added to each well, another 4 h of incubation was continued at 37°C. After removal of 100-μL culture medium, the cells were lysed with 20% SDS-50% DMF (100 μL). The remained lysates were subjected to measure the optical density value at 595 nm with a 96-well microtiter plate reader (Tecan Spark 10M, Switzerland). […] All the experiments were in triplicates. The IC50 value was calculated by a published method ([Chen et al., 2018]).

[4] = system: Salmonella enterica subsp. enterica ATCC14028; assay: Antibacterial assay; type: cell-based; conditions: for inhibition at 200 µM: Salmonella enterica, ATCC14028, 24 h, read-out: Inhibition rate against Salmonella enterica subsp. enterica
Procedure: as §1

[5] = system: Escherichia coli ATCC25922; assay: Antibacterial assay; type: cell-based
Procedure: as §1

[6] = system: Staphylococcus aureus subsp. aureus ATCC29213; assay: Antibacterial assay; type: cell-based; conditions: 200 μM, 24 h
Procedure: as §1

[7] = Staphylococcus aureus, MRSA, 200 μM, 24 h

For `COc1cc(O)c2c(c1)C(=O)c1cc(C)cc(O)c1C2=O` [Compound 15, physcion], the inhibition at 200 µM ([1]; 200 μM, 24 h) was 38%.

With `COc1cc(O)cc2c1C(=O)c1c(O)cc(C)cc1[C@@H]2[C@H](C)CC(C)=O` [Compound 3, (10S,12R)-Chevalierone] the “antibacterial activity against MRSA (in words)” value [2] was “significant antibacterial activities”, the inhibition at 200 µM [2, 7] was 74.1% and the “antibacterial activity against P. aeruginosa (in words)” value [1] was “significant antibacterial activities”. For the same compound, the inhibition at 200 µM ([1]; 200 μM, 24 h) was 81.9%.

`CCC/C=C/c1cc2c(C=O)c(O)c(CC=C(C)C)cc2o1` [Compound 7, 2-(2′,3-epoxy-1′,3′-heptadienyl)-6-hydroxy-5-(3-methyl-2-butenyl)benzaldehyde] showed an IC50 [3] greater than 100 µM.

With `COc1cc(O)cc2c1C(=O)c1c(O)cc(C)cc1[C@H]2[C@@H](C)CC(C)=O` [Compound 5, (10R,12S)-Chevalierone] the “antibacterial activity against MRSA (in words)” value [2] was “significant antibacterial activities”, the inhibition at 200 µM [2, 7] was 88.5% and the MIC50 ([2]; Staphylococcus aureus, MRSA, read-out: MIC50 against MRSA) was 44 µM (≈ 15.6 µg/mL). The “antibacterial activity against P. aeruginosa (in words)” value [1] was “significant antibacterial activities” and the inhibition at 200 µM ([1]; 200 μM, 24 h) was 91.5%.

For `CCC[C@@H](O)[C@@H]1C=Cc2c(cc(CC=C(C)C)c(O)c2C=O)O1` [Compound 13, (3′S,4′R)-6-(3′,5-epoxy-4′-hydroxy-1′-heptenyl)-2-hyd roxy-3-(3″-methyl-2″-butenyl)benzaldehyde], the IC50 [3] was greater than 100 µM.

With `CCCCCCCc1c(O)cc(CC=C(C)C)c(O)c1C=O` [Compound 10, flavoglaucin] the IC50 at 48 h (in vitro) was 39.7 µM and the IC50 [3] was 40.9 µM.

With `COc1cc(O)cc2c1C(=O)c1c(O)cc(C)cc1[C@@H]2[C@@H](C)CC(C)=O` [Compound 2, (10S,12S)-Chevalierone] the inhibition at 200 µM ([1]; 200 μM, 24 h) was 38.2%.

In the case of `CC(C)=CCc1cc2oc(=O)ccc2c(C=O)c1O` [Compound 12, cristaldehyde A], the IC50 [3] is reported as greater than 100 µM.

With `COc1cc(O)cc2c1C(=O)c1c(O)cc(C)cc1[C@H]2[C@H](C)CC(C)=O` [Compound 4, (10R,12R)-Chevalierone] the “antibacterial activity against MRSA (in words)” value [2] was “significant antibacterial activities”, the inhibition at 200 µM [2, 7] was 85% and the “antibacterial activity against P. aeruginosa (in words)” value [1] was “significant antibacterial activities”. For the same compound, the inhibition at 200 µM ([1]; 200 μM, 24 h) was 81%.

Compound `CCC/C=C/C=C/c1c(O)cc(CC=C(C)C)c(O)c1C=O` [Compound 9, dihydroauroglaucin] has an IC50 [3] greater than 100 µM.

`CC1(C)S[C@@H]2[C@H](NC(=O)Cc3ccccc3)C(=O)N2[C@H]1C(=O)O` [Penicillin G sodium, Penicillin G sodium salt, reference compound] showed an inhibition at 200 µM [2, 7] of 60.5%, an inhibition at 200 µM ([1]; 200 μM, 24 h) of 99.9% and an inhibition at 200 µM [4] of 75.7%.

In the case of `C/C=C/C=C/CCc1c(O)cc(CC=C(C)C)c(O)c1C=O` [Compound 11, isodihydroauroglaucin], the IC50 [3] is reported as 34.9 µM.

With `CCCCCCCc1c(O)cc2c(c1C=O)OC(C)(C)C=C2` [Compound 6, asperglaucin B] the IC50 [3] was greater than 100 µM and the MIC ([2]; Staphylococcus aureus, MRSA, read-out: MIC against MRSA) was 44 µM (≈ 13.3 µg/mL).

`CCCCC/C=C/c1c(O)cc(CC=C(C)C)c(O)c1C=O` [Compound 8, tetrahydroauroglaucin] gave an IC50 [3] of 36.1 µM.

In the case of `CC(C)(O/N=C(\C(=O)N[C@@H]1C(=O)N2C(C(=O)[O-])=C(C[n+]3ccccc3)CS[C@H]12)c1csc(N)n1)C(=O)O` [Ceftazidime, ceftazidime, reference compound], the inhibition at 200 µM [4] is reported as 99.3% and the inhibition at 200 µM ([5]; Escherichia coli, ATCC25922, 24 h, read-out: Inhibition rate against Escherichia coli) is reported as 99.8%.

In the case of “1,4,5-trihydroxy-7-methoxy-2-methyl-anthraquinone [Compound 14]”, the “Inhibition rate against Methicillin-resistant Staphylococcus aureus” value ([2]; 200 μM, 24 h) is reported as 52.0%, the “Inhibition rate against Pseudomonas aeruginosa” value ([1]; 200 μM, 24 h) is reported as 38.2% and the “Inhibition rate against Staphylococcus aureus subsp. aureus” value [6] is reported as “– (This symbol “–” represent no activity)”. The “Inhibition rate against Salmonella enterica subsp. enterica” value ([4]; 200 μM, 24 h) was “– (This symbol “–” represent no activity)” and the “Inhibition rate against Escherichia coli” value ([5]; 200 μM, 24 h) was “– (This symbol “–” represent no activity)”.

Compound `CCCCCC1Cc2c(cc(CC=C(C)C)c(O)c2C(=O)O)O1` (racemic) [Compound 1, (±)-Chevalieric acid] has an IC50 [3] of 101 µM.
